Laboratory results reported in Sander's compilation of Henry's law constants (doi:10.1002/jps.2600670510).

Assay: Henry solubility constant Hcp at 298.15 K (mol/(m3 Pa))
Conditions: reference: Rytting et al. (1978)

SMILES | Henry solubility constant Hcp
CCCCN [1-butanamine] | 0.52
CCCCCCCN [1-heptanamine] | 0.24
CCCCCCCCN [1-octanamine] | 0.19
CCCCCN [1-pentanamine] | 0.4
CCCCCO [1-pentanol] | 0.9
CCC(C)O (configuration not stated) [2-butanol] | 0.98
CC(C)CO [2-methyl-1-propanol] | 0.8

Results, then the compound that gave them:

Henry solubility constant Hcp | SMILES
0.32 | CCCCCCN [1-hexanamine]
4.8e-06 | CCCCCCC [heptane]
5.4e-06 | CCCCCC [hexane]
3.1e-06 | CCCCCCCC [octane]
7.8e-06 | CCCCC [pentane]
